Laboratory results as given in ChEMBL document CHEMBL3861944 (Medchemcomm, 2016).

Assay: Antioxidant activity assessed as DPPH free radical scavenging activity incubated for 30 mins in dark
Format: functional

IC50: 79.3 µM
SMILES: O=C1O[C@H]([C@@H](O)CO)C(O)=C1O [ASCORBIC ACID]
